From publication PMC6934184, “Selective DNA-PKcs inhibition extends the therapeutic index of localized radiotherapy and chemotherapy” (The Journal of Clinical Investigation, 2019)

Biological target: DNA-PK (Homo sapiens, UniProt P78527)
Assay: SelectScreen Z'LYTE
Assay type: biochemical
Design: purchased Thermo Fisher Scientific (Life Technologies) SelectScreen
Conditions: ATP Km app
Procedure: The in vitro kinase selectivity of NU5455 was determined using the SelectScreen Broad Assay Panel (Thermo Fisher Scientific) involving activity and binding assays (Supplemental Table 1). […] Class IA PI3Ks were measured using the p85α subunit.
Kinase [ATP] % Assay Kinase [ATP] % Assay Kinase [ATP] % Assay Kinase [ATP] % Assay
DNA-PK Km app 98.3 Z LATS2 n/a 4.7 L KIT D820E n/a 1.3 L GSK3B (GSK3 beta) Km app -2.5 Z
PIK3C3 (hVPS34) Km app 85.9 A PRKCZ (PKC zeta) Km app 4.7 Z GRK1 n/a 1.3 L BMPR2 n/a -2.5 L
PIK3C2B (PI3K-C2 beta) 10 28.9 A FGFR1 Km app 4.7 Z BRSK2 n/a 1.2 L CDC42 BPB (MRCKB) Km app -2.5 Z
SNF1LK2 Km app 26.6 Z MINK1 Km app 4.6 Z NUAK1 (ARK5) Km app 1.2 A AMPK (A2/B2/G2) n/a -2.6 L
HCK Km app 18.0 Z CSF1R (FMS) Km app 4.3 Z CDK9/cyclin K n/a 1.0 L PRKG1 Km app -2.7 Z
NEK2 Km app 17.8 Z CSNK1G3 (CK1 gamma 3) Km app 4.2 Z NUAK2 n/a 1.0 L KIT T670E n/a -2.8 L
ALK Km app 17.3 Z STK32C (YANK3) n/a 4.2 L CDK2/cyclin O n/a 0.9 L ERBB4 (HER4) Km app -2.8 Z
FGFR3 K650M n/a 16.5 L STK22D (TSSK1) Km app 4.2 Z CAMKK2 (CaMKK beta) n/a 0.9 L PLK4 n/a -2.8 L
SIK3 n/a 16.1 L TAOK3 (JIK) n/a 4.2 L FGFR3 Km app 0.9 Z GRK7 Km app -3.0 Z
LYN A Km app 15.2 Z RPS6KA4 (MSK2) Km app 4.2 Z ULK2 n/a 0.9 L MAPKAPK2 Km app -3.1 Z
BMPR1B (ALK6) n/a 14.5 L PTK2B (FAK2) Km app 4.2 Z KIT D816V n/a 0.9 L FGFR4 Km app -3.1 Z
INSRR (IRR) Km app 14.1 Z CLK2 Km app 4.1 Z CAMK1 (CaMK1) 10 0.8 A CASK n/a -3.1 L […]

## CN(C(=O)CN1CCOCC1)c1ccc2sc3c(-c4cccc5c(=O)cc(N6CC7CCC(C6)O7)oc45)cccc3c2c1 [NU5455]
1 µM
  % inhibition: 98%
  inhibition at 1 µM: 98.3%
